What was measured:
Details in all cases: 72 h
Caco-2 [1] = experiment: cell viability relative to DMSO; higher = less toxic
Calu-3 [2] = experiment: as above
HepG2 [3] = experiment: as above
U2OS [4] = experiment: as above
Vero E6 [5] = experiment: as above
Caco-2 [6] = experiment: relative viability EC50 (midpoint between 100% and the lowest measured viability); higher = less toxic
Calu-3 [7] = experiment: as above
HepG2 [8] = experiment: as above
U2OS [9] = experiment: as above
Vero E6 [10] = experiment: as above
Caco-2 [11] = experiment: drug sensitivity score (DSS) for viability; higher = more toxic; extreme values may be limits of the assay
Calu-3 [12] = experiment: as above
HepG2 [13] = experiment: as above
U2OS [14] = experiment: as above
Vero E6 [15] = experiment: as above

SMILES	cell viability (Caco-2 [1]; 1 nM)	cell viability (Caco-2 [1]; 10 nM)	cell viability (Caco-2 [1]; 100 nM)	cell viability (Caco-2 [1]; 1000 nM)	cell viability (Caco-2 [1]; 10000 nM)	cell viability (Calu-3 [2]; 1 nM)	cell viability (Calu-3 [2]; 10 nM)	cell viability (Calu-3 [2]; 100 nM)	cell viability (Calu-3 [2]; 1000 nM)	cell viability (Calu-3 [2]; 10000 nM)	cell viability (HepG2 [3]; 1 nM)	cell viability (HepG2 [3]; 10 nM)	cell viability (HepG2 [3]; 100 nM)	cell viability (HepG2 [3]; 1000 nM)	cell viability (HepG2 [3]; 10000 nM)	cell viability (U2OS [4]; 1 nM)	cell viability (U2OS [4]; 10 nM)	cell viability (U2OS [4]; 100 nM)	cell viability (U2OS [4]; 1000 nM)	cell viability (U2OS [4]; 10000 nM)	cell viability (Vero E6 [5]; 1 nM)	cell viability (Vero E6 [5]; 10 nM)	cell viability (Vero E6 [5]; 100 nM)	cell viability (Vero E6 [5]; 1000 nM)	cell viability (Vero E6 [5]; 10000 nM)	relative viability EC50 (Caco-2 [6])	relative viability EC50 (Calu-3 [7])	relative viability EC50 (HepG2 [8])	relative viability EC50 (U2OS [9])	relative viability EC50 (Vero E6 [10])	drug sensitivity score (Caco-2 [11])	drug sensitivity score (Calu-3 [12])	drug sensitivity score (HepG2 [13])	drug sensitivity score (U2OS [14])	drug sensitivity score (Vero E6 [15])
Cn1c(C#N)ccc1-c1ccc2c(c1)C(C)(C)OC(=S)N2 [tanaproget]	98%	101%	100%	94.8%	75.4%	105%	106%	101%	108%	88.9%	106%	109%	95.8%	87%	24.7%	102%	103%	102%	103%	94.9%	102%	103%	98.2%	105%	107%	> 10 µM	> 10 µM	1.86 µM	> 10 µM	> 10 µM	1.7	0	6.3	0	0
O=C1c2c(O)cc(O)cc2O[C@H](c2ccc(O)c(O)c2)[C@H]1O [taxifolin]	91.5%	106%	105%	104%	96%	101%	110%	90.1%	102%	99.5%	101%	94.4%	98.5%	100%	97.5%	95.2%	96.5%	92.9%	96.2%	89.9%	94.4%	99.4%	94.2%	97.6%	104%	> 10 µM	> 10 µM	> 10 µM	> 10 µM	> 10 µM	0	0	0	0	0
CCN(c1cc(-c2ccc(CN3CCOCC3)cc2)cc(C(=O)NCc2c(C)cc(C)[nH]c2=O)c1C)C1CCOCC1 [tazemetostat]	91.9%	101%	98.9%	101%	92.6%	91.2%	103%	98.3%	98%	104%	86.1%	97%	90.3%	96.9%	95.3%	97.7%	96.9%	101%	102%	93.8%	96.2%	97.7%	95.2%	98.9%	98.9%	> 10 µM	> 10 µM	> 10 µM	> 10 µM	> 10 µM	0	0	0	0	0
